Source: patent US7498292B2, “Combinatorial libraries of autoinducer analogs, autoinducer agonists and antagonists, and methods of use thereof” (The Research Foundation of State University of New York, priority 2002, dated 2009)
“Also recorded” adds a separate entry of the source.

Legend:
[1] = test system: lac promoter; experiment: GFP expression from lac promoter, PAO-JP2 (pTdK-GFP) (specificity control); format: cell-based, P. aeruginosa; details: lasI promoter replaced with a lac promoter
[2] = biological target: T1, LasR (Pseudomonas aeruginosa, UniProt P25084); experiment: lasI-gfp reporter agonist assay, PAO-JP2 (plasI-LVAgfp); format: cell-based, P. aeruginosa; details: PAO-JP2 (plasI-LVAgfp), compounds made in solution phase, increasing concentrations (1, 100, 400 μM)
T1 construct: endogenous in cells; host or cells: P. aeruginosa PAO-JP2 (lasI, rhlI) harboring plasI-LVAgfp
T1 sequence (P25084 whole entry): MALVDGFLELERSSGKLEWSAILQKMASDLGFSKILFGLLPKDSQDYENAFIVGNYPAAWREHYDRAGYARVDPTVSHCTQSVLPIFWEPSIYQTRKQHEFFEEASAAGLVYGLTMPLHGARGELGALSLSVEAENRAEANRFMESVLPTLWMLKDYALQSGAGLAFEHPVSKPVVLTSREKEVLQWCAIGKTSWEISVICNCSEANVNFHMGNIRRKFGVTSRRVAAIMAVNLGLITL
Source text: Since this strain lacks the ability to produce natural AIs due to disruption of both AI synthase genes, activation of LasR relies on the addition of exogenous AI1. Expression of gfp (encoding green fluorescent protein) is under control of the LasR-AI1 inducible lasI promoter, allowing rapid screening for LasR agonists by measuring the level of GFP expression in their presence.
P. aeruginosa strain PAO-JP2 (lasI, rhlI) (Rahme et al., Science 268:1899-1902 (1995), which is hereby incorporated by reference in its entirety) harboring plasI-LVAgfp (Pearson et al., Proc. Natl Acad. Sci. USA 91:197-201 (1994), which is hereby incorporated by reference in its entirety) was grown at 37° C. in LB with 300 μg/ml carbenicillin. For agonist assays, an overnight culture was diluted to an OD600 of 0.1 and transferred to wells of a 96-well plate on which test compounds had previously been added and dried. The final concentration of each analog tested was roughly 400 μM, although this is an overestimate due to purity issues. Cells were then incubated for 6 hours at 37° C. with vigorous shaking. GFP expression was detected with a Molecular Imager (BioRad) (488 nm excitation and 695 nm bandpass filter) and quantified with ImageQuant software. The OD600 of cultures was determined to normalize GFP expression to cell density.
(§1) Reporter strains were grown overnight in LB plus 300 μg/ml carbenicillin at 37° C. and diluted to an OD600 of 0.1. Following an incubation of 1 hour, 200 μl of cell culture was added to individual wells of a 96 well plate containing appropriate amount of test compound(s). Plates were incubated for 6 hours and then scanned for fluorescence emission with a Molecular Imager (488 nm excitation and 695 nm bandpass filter). Fluorescence was quantified with ImageQuant software.

[3] = test system: RhlR; experiment: rhlI-gfp reporter antagonist assay, PAO-JP2 (prhlI-LVAgfp); format: cell-based, P. aeruginosa; details: 50 μM compound, competing against 1 μM AI1 and 10 μM AI2
Description: Each compound in the library was tested for antagonist activity using the same reporter strain, PAO-JP2 (plasI-LVAgfp) (de Kievit et al., Appl. Environ. Microbiol. 67:865-1873 (2001), which is hereby incorporated by reference in its entirety) to find compounds that could compete against AI1 and reduce GFP expression. The methods were the same as described in Example 2 (GFP Reporter Assay), except that 1 μM AI1 was added to each well in combination with the library compound. The fluorescence/OD600 of each compound competing against AI1 was reported relative to the fluorescence/OD600 of the positive control of AI1 alone, which was set to 1. When strain PAO-JP2 (prhlI-LVAgfp) was used, the positive control was 1 μM AI1 and 10 μM AI2.
3- oxo-C12-D10 was synthesized in solution phase, where the natural side chain was coupled with D10 and purified by chromatography. To determine if the same structural motif can be applied to inhibition of the RhlR-AI2 interaction, C4-D10 was also synthesized. Assays were performed with both the lasI-gfp reporter PAO-JP2 (plasI-LVAgfp) and an RhlR-AI2 controlled rhlI-gfp reporter, PAO-JP2 (prhlI-LVAgfp) (FIGS. 10A-C) (de Kievit et al., Appl. Environ. Microbiol. 67:865-1873 (2001), which is hereby incorporated by reference in its entirety).
as §1
Next the ability of 2 and 3 to inhibit the rhlI-gfp reporter strain PAO-JP2 (prhlI-LVAgfp) was tested, since this expression is also AI1-dependent.

[4] = test system: PAO-JP2 (pTdK-GFP) biofilm; experiment: static biofilm assay, PAO-JP2 (pTdK-GFP); format: cell-based, P. aeruginosa; details: PAO-JP2 (pTdK-GFP) with exogenous AIs, 24-hour static assay
Description: (§2) Compound 3 was tested for its effect on biofilm development in a 24-hour assay that looks at the early stages of biofilm formation. […] Cultures were grown at 37° C. with shaking for 30 minutes, and then allowed to sit at 37° C. for an additional 23.5 hours. Coverslips were then rinsed and placed on slides for visualization using an MRC1024 Laser Scanning Microscope (BioRad) with a Nikon Fluor-60X oil emersion objective lens (NA=1.4), 488 nm Argon Laser and OG515 filter.

[5] = test system: pyocyanin; experiment: pyocyanin assay, strain PAO-JP2; format: cell-based, P. aeruginosa PAO-JP2; details: PAO-JP2, 25 μM each of AI1 and AI2, 18 hours
Description: For the pyocyanin assay, cells were grown overnight in LB then washed in fresh media and diluted to an OD600 of 0.05. This culture was grown for 3-4 hours to mid-log phase (OD600 of 0.3-0.5), then diluted to an OD600 of 0.05, and aliquoted to test tubes containing an appropriate amount of test compound(s). Following 18 hours of growth, pyocyanin was extracted from filtered culture supernatants and quantified using standard methods (Essar et al., J. Bacteriol. 172:884-900 (1990), which is hereby incorporated by reference in its entirety).

[6] = test system: PAO1 (pTdK-GFP) biofilm; experiment: static biofilm assay, PAO1 (pTdK-GFP); format: cell-based, P. aeruginosa
Description: as §2
The same assay was run with strain PAO-1 (pTdK-GFP), and no exogenous autoinducers were added. […] The above results provide additional evidence that compound 3 interferes with QS signaling and reduces the production of important virulence factors.

[7] = test system: Elastase B; experiment: elastase (Elastin Congo Red) assay, strain PAO-JP2; format: cell-based, P. aeruginosa PAO-JP2; details: PAO-JP2, 50 μM compound, 5 μM AI1 and 10 μM AI2
Description: Pyocyanin, elastase, and biofilm were assayed as previously described (Smith et al., Chem. Biol. 10:81-89 (2003), which is hereby incorporated by reference in its entirety). Elastase activity produced by P. aeruginosa in the presence of AIs and competing 3-oxo-C12-D10 was determined by measuring breakdown of the substrate Elastin Congo Red.
For the elastase B assay, cells (PAO-JP2) were grown overnight in PTSB media (5% Peptone, 0.1% Tryptic Soy Broth) at 37° C., washed and diluted to an OD600 of 0.05, grown to mid-log phase, washed again, and re-suspended to an OD600 of 0.05. The culture was then added to test tubes containing test compound(s) and grown for 6 hours. Elastase B activity was quantified by incubation of 100 μl of filtered culture supernatant with 5 mg Elastin Congo Red substrate and 1 ml of 10 mM Tris pH 7.2, 1 mM CaCl2 for 6 hours at 37° C. with agitation. Elastase B activity is represented by the OD495 of the enzyme assay following reaction quenching with EDTA and centrifugation to remove unreacted substrate, divided by the OD600 of the cell culture. The same assay was run with strain PAO-1, however no exogenous autoinducers were added.

CCCCCCCCCC(=O)CC(=O)NC1CCCCC1=O (racemic) [Compound 3, N-(2-oxocyclohexyl)-3-oxododecanamide] was tested, and the “inhibition of GFP expression from lac promoter” value [1] was “inability to inhibit GFP expression”, the “agonist activity (induction of lasI-gfp reporter)” value [2] was “nearly unable to induce the reporter; also recorded: no agonist activity” and the “inhibition of GFP expression (rhlI-gfp)” value [3] was “greater than 60%”. For the same molecule, the “effect on biofilm formation” value [4] was “completely inhibited”, the “effect on pyocyanin production” value [5] was “nearly complete inhibition” and the “effect on biofilm morphology” value ([6]; wild type PAO1) was “noticeable difference in biofilm morphology”. For the same molecule, the “effect on biofilm formation” value ([6]; wild type PAO1, no exogenous autoinducers) was “less obvious” and the “elastase activity, % of the positive control level” value [7] was 60%.
